Experimental findings from US20130109698A1, “Small Molecule Inhibitors of Functions of the HIV-1 Matrix Protein” (priority 2010, published 2013) are described below.

For orientation: IC50 means the concentration that gives 50% inhibition. The low end stands for higher potency, the high end for lower potency. One may read the IC90 as the concentration needed for an effect of 90%.

Molecules are shown by their SMILES.

One data set has as its system influenza H1N1. The data set can be described thus: Antiviral spectrum: cytopathic effect assay. Type of data set: cell-based. Particulars: influenza H1N1, up to 100 μM.
The next data set relates to Dengue serotypes 1-4. The data set can be described thus: Antiviral spectrum: cytopathic effect assay. The format is cell-based. In general terms: Cytopathic effects are the visible damage that an infection or toxin causes in cultured cells.
The subject of another data set is herpes simplex type 1. Put plainly: Antiviral spectrum: HSV-1 in Vero cells. Type of data set: cell-based. Particulars: herpes simplex type 1, up to 100 μM. As for the experimental part: The effects of the compounds on HSV-1 (dsDNA; strain HF evaluated in Vero cells; virus and cells obtained from the American Type Culture Collection [ATCC]) were assessed as described previously (Ptak et al., 2008, Antimicrob Agents Chemother 52:1302-1317).

The next data set concerns the target T1, HIV-1 MA (Human immunodeficiency virus type 1 group M subtype B, UniProt P03348).
T1 construct: His6 (N, cleaved yes); SUMO (N, cleaved yes); made in house; host or cells: Escherichia coli BL21 (DE3) Codon+-RIL
Put plainly: Surface plasmon resonance direct binding to immobilized HIV-1 MA. The settings on record: for direct interaction with sensor chip-immobilized HIV-1 MA: CM7 sensor chip, 10 μM (FIG. 14). The text has this:
An assay was devised to monitor the interactions of small-molecule compounds to HIV-1 MA using SPR. In this assay, HIV-1LA1 MA was immobilized to the flow cells of a CM5 sensor chip to high density (˜1.3 kRU) or a CM7 sensor chip to high density (19 kRU) using standard amine coupling. A reference surface was similarly created by immobilizing the SUMO protein or a nonspecific antibody ARC4033 (antimouse/rat interferon-γ: BioSource). In small-molecule assays, the buffering system used is important due to the low responses obtained in binding assays. […] A stock solution of the MTI compounds was prepared by dissolving in 100% dimethyl sulfoxide (DMSO) to a final concentration of 10 mM.
To prepare the sample for analysis, 30 μL of the stock solution of the compound of the invention was added to sample preparation buffer (PBS, pH 7.2) to a final volume of 1 mL and mixed thoroughly. Preparation of analyte in this manner ensured that the concentration of DMSO was matched with that of running buffer with 3% DMSO. Lower concentrations of each compound were then prepared by two-fold serial dilutions into running buffer (PBS, 3% DMSO, pH 7.2). These compound dilutions were then injected over the control and MA surfaces at a flow rate of 30 μL min^−, for a 4-min association phase, followed by a 5-min dissociation phase.
In one aspect, owing to the relatively fast dissociation rates of these compounds, regeneration of these surfaces was accomplished by extensive washing of the system followed by a 5 min wait phase, a second wash, and a final 15 min wait phase. To secure complete regeneration, a buffer injection (5 min^on/5 min^off) was performed before each subsequent injection of compound.
Response to a small-molecule compound (NBD-556) specific for HIV-1 gp120 was also monitored to ensure specificity.
Data analysis was performed using BIAEvaluation 4.0 software (GE Healthcare). The responses of a buffer injection and responses from the ARC4033-immobilized reference cell were subtracted to account for nonspecific binding. The average maximum response was generated from a minimum of 3 data sets and was used to define the standard deviation for each compound binding to the HIV-1 MA protein.
The MTI compounds are predicted to interact with HIV-1 MA and thereby disrupt its functioning during the HIV-1 replication cycle. However, it is possible that a compound might exert its action via another mechanism not involving MA. Therefore, studies were performed to determine that the MTI compounds are directed against HIV-1 MA. The direct interaction of compounds CMPD-18, CMPD-17, CMPD-7, and CMPD-14 with HIV-1 MA was assayed using surface plasmon resonance interaction analyses. Wild-type HIV-1 MA protein was overproduced in E. coli using the pETHSUL expression system and purified using successive IMAC strategies, followed by an ion exchange chromatographic step as outlined in Materials and Methods. FIG. 6 illustrates the purification profile of HIV-1 MA. The purified MA was then immobilized onto the surface of a high-capacity CM7 sensor chip. Similarly, the monoclonal antibody ARC4033 (antimouse/rat interferon-γ; BioSource, Invitrogen, Carlsbad, Calif.) was immobilized on a CM7 sensor chip and was used to correct for background binding and instrument and buffer artifacts.
(SPR reads the build-up and loss of mass on a sensor chip optically.)

Another data set relates to SIV MAC251. Put plainly: Antiviral efficacy in PBMCs, reverse transcriptase activity. Type of data set: cell-based. The settings on record: for IC50 / IC90: Simian immunodeficiency virus, PBMC.
Data set [1] can be described thus: Compound cytotoxicity in PBMCs (MTS). Type of data set: cell-based, human. The settings on record: human; Table 4 study, PBMCs; read-out: TC50. The protocol:
(§1) HIV human peripheral blood mononuclear cell (PBMC) assays were performed as described previously (Lanier et al., 2010, Antimicrob Agents Chemother 54:2901-2909 and Ptak et al., 2008, Antimicrob Agents Chemother 52:1302-1317). Briefly, fresh PBMCs, seronegative for HIV and hepatitis B virus (HBV), were isolated from blood samples of the screened donors (Biological Specialty Corporation, Colmar, Pa.) by using lymphocyte separation medium (LSM; density, 1.078±0.002 g/ml; Cellgro; Mediatech, Inc.) by following the manufacturer's instructions. Cells were stimulated by incubation in 4 μg/mL phytohemagglutinin (PHA; Sigma) for 48 to 72 h. Mitogenic stimulation was maintained by the addition of 20 U/mL recombinant human interleukin-2 (rhIL-2; R&D Systems, Inc.) to the culture medium. PHA-stimulated PBMCs from at least two donors were pooled, diluted in fresh medium, and added to 96-well plates at 5×10^4 cells/well. Cells were infected (final multiplicity of infection [MOI] of ≅0.1) in the presence of nine different concentrations of test compounds (triplicate wells/concentration) and incubated for 7 days. To determine the level of virus inhibition, cell-free supernatant samples were collected for analysis of reverse transcriptase activity (Buckheit et al., 1991, AIDS Res Hum Retroviruses 7:295-302). Following removal of supernatant samples, compound cytotoxicity was measured by the addition of 3-(4,5-dimethylthiazol-2-yl)-5-(3-carboxymethoxy-phenyl)-2-(4-sulfophenyl)-2H-tetrazolium (MTS; CellTiter 96 reagent; Promega) by following the manufacturer's instructions.

In the next data set the test system is HIV-1 92UG031 Subtype A. The data set can be described thus: Anti-HIV efficacy in human PBMCs. The settings on record: for IC50 / IC90: Human immunodeficiency virus 1, PBMC, PBMCs. Type of data set: cell-based. The protocol:
as §1

The next data set has as its system HIV-1 92UG024 Subtype D. Put plainly: Anti-HIV efficacy in human PBMCs. The format is cell-based. Particulars: for IC50 / IC90: Human immunodeficiency virus 1, PBMC, PBMCs. The protocol:
as §1

The subject of a further data set is HIV-1 89BZ167 Subtype B. The data set can be described thus: Anti-HIV efficacy in human PBMCs. Particulars: for IC50 / IC90: Human immunodeficiency virus 1, PBMC, PBMCs. Type of data set: cell-based. The protocol: as §1
The test system of another data set is HIV-1 92BR025 Subtype C. The data set can be described thus: Anti-HIV efficacy in human PBMCs. Type of data set: cell-based. The settings on record: for IC50 / IC90: Human immunodeficiency virus 1, PBMC, PBMCs. As for the experimental part:
as §1

A further data set concerns Japanese encephalitis. Put plainly: Antiviral spectrum: cytopathic effect assay. Type of data set: cell-based.

For `Cc1ccc(NC(=O)CN2CCN(Cc3nc(-c4ccc(F)cc4)no3)CC2)cc1` [CMPD-7, 2-(4-((3-(4-fluorophenyl)-1,2,4-oxadiazol-5-yl)methyl)piperazin-1-yl)-N-(p-tolyl)acetamide], the “inhibitory effects on replication” value in the data set with influenza H1N1, with Dengue serotypes 1-4, with herpes simplex type 1 and in the data set on Japanese encephalitis was “no inhibitory effects” in each case. The “direct interaction with sensor chip-immobilized HIV-1 MA” value (from here on “direct interaction”) on HIV-1 MA was “directly interacted”. In addition, the “Antiviral index (TC50/IC50)” value is above 10.55 with SIV MAC251; above 6.72 with HIV-1 92UG031 Subtype A; above 11.3 in the data set with HIV-1 92UG024 Subtype D; above 6.97 in the data set on HIV-1 89BZ167 Subtype B; above 9.51 with HIV-1 92BR025 Subtype C. For the same molecule, the IC50 with SIV MAC251 is 9.48 µM; with HIV-1 92UG031 Subtype A, 14.9 µM; with HIV-1 92UG024 Subtype D it was 8.88 µM; with HIV-1 89BZ167 Subtype B it was 14.4 µM; with HIV-1 92BR025 Subtype C, 10.5 µM. Also, the IC90 in the data set on SIV MAC251 is 31 µM; in the data set on HIV-1 92UG031 Subtype A, above 100 µM; in the data set on HIV-1 92UG024 Subtype D, 35.2 µM; in the data set on HIV-1 89BZ167 Subtype B, above 100 µM; in the data set on HIV-1 92BR025 Subtype C, above 100 µM. Moreover, in [1], the CC50 at 7 days was above 100 µM.
On to `O=C(CNC(=O)COc1ccccc1)NCc1ccc(C(=O)N2CCCCC2)cc1` [CMPD-14, N-(2-oxo-2-((4-(piperidine-1-carbonyl)benzyl)amino)ethyl)-2-phenoxyacetamide], for which the “inhibitory effects on replication” value in the data set with influenza H1N1, in the data set on Dengue serotypes 1-4, in the data set on herpes simplex type 1 and in the data set with Japanese encephalitis was “no inhibitory effects” in each case. Moreover, the “direct interaction” value on HIV-1 MA was “directly interacted”. The “Antiviral index (TC50/IC50)” value in the data set on SIV MAC251 was above 5.85; in the data set with HIV-1 92UG031 Subtype A, above 5.40; in the data set on HIV-1 92UG024 Subtype D, above 5.41; in the data set with HIV-1 89BZ167 Subtype B, above 4.66; in the data set on HIV-1 92BR025 Subtype C, above 4.24. Moreover, the IC50 with SIV MAC251 was determined as 17.1 µM; in the data set on HIV-1 92UG031 Subtype A it was 18.5 µM; with HIV-1 92UG024 Subtype D, 18.5 µM; in the data set with HIV-1 89BZ167 Subtype B it was 21.4 µM; with HIV-1 92BR025 Subtype C it was 23.6 µM. Also, the IC90 with SIV MAC251 amounted to 44.2 µM; with HIV-1 92UG031 Subtype A it was 42.2 µM; in the data set with HIV-1 92UG024 Subtype D it was 29.5 µM; with HIV-1 89BZ167 Subtype B, 40.7 µM; with HIV-1 92BR025 Subtype C, 96.6 µM. For the same molecule, in data set [1], the CC50 at 7 days was above 100 µM.
For the molecule `CCOc1ccc(NC(=O)Cc2cn3ccsc3n2)cc1S(=O)(=O)N1CCCCC1` [CMPD-18, N-(4-ethoxy-3-(piperidin-1-ylsulfonyl)phenyl)-2-(imidazo[2,1-b]thiazol-6-yl)acetamide], the “inhibitory effects on replication” value in the data set on influenza H1N1, in the data set with Dengue serotypes 1-4, in the data set with herpes simplex type 1 and in the data set on Japanese encephalitis was “no inhibitory effects” throughout. Moreover, the “interaction with HIV-1 MA versus SUMO” value on HIV-1 MA (25.1 μM (FIG. 11)) was “specific interaction”. The “direct interaction” value on HIV-1 MA is reported as “directly interacted”. The “Antiviral index (TC50/IC50)” value was 1.06 with SIV MAC251; above 3.98 in the data set on HIV-1 92UG031 Subtype A; above 6.02 with HIV-1 92UG024 Subtype D; above 2.94 in the data set with HIV-1 89BZ167 Subtype B; above 2.79 in the data set on HIV-1 92BR025 Subtype C. Besides, the IC50 in the data set with SIV MAC251 was 87.1 µM; in the data set with HIV-1 92UG031 Subtype A it was 15.8 µM; with HIV-1 92UG024 Subtype D, 10.4 µM; in the data set on HIV-1 89BZ167 Subtype B, 21.3 µM; in the data set with HIV-1 92BR025 Subtype C, 22.4 µM. Further, the IC90 in the data set with SIV MAC251 is above 100 µM; in the data set on HIV-1 92UG031 Subtype A it was 64.7 µM; in the data set with HIV-1 92UG024 Subtype D, 25.9 µM; with HIV-1 89BZ167 Subtype B it was 71.8 µM; in the data set on HIV-1 92BR025 Subtype C, 75 µM. Besides, the CC50 at 7 days in data set [1] came out at 92.3 µM.
